# Data as given in PMC9814590, “Precise heteroatom doping determines aqueous solubility and self-assembly behaviors for polycyclic aromatic skeletons” (Communications Chemistry, 2022).
# Where two headings read alike, the source gives them in different places.
# Columns and labels:
# [1] = Hansen solubility parameters (HSP) from rated solvent library, optimized in HSPiP; Ra and RED versus water; type: physicochemical; settings: for Water2 Ra: distance to water HSP of dense condition (18.1, 17.1, 16.9); for Water1 Ra: distance to water HSP of dilute condition (15.1, 20.4, 16.5); for δD (dispersion solubility parameter) / δH (hydrogen bonding solubility parameter) / δP (polar solubility parameter) / R0 (intrinsic distance parameter): experimentally rated solvent library, HSPiP; for R0 (intrinsic distance parameter): unit assumed; for Water2 RED (Ra/R0): water HSP of dense condition (18.1, 17.1, 16.9); for Water1 RED (Ra/R0): water HSP of dilute condition (15.1, 20.4, 16.5)
# From the text: To figure out why the doped N/O heteroatoms on the aromatic skeletons can both influence their hydrophilicity and aqueous solubility, we employed the Hansen solubility parameters (HSP) to interpret this phenomenon. This method developed by Charles Hansen et al.[30] has found broad use both in academia and industry for predicting the compatibility or affinity between two substances[31]–[34]. The key elements of HSP approach are three partial solubility parameters consisting of δD, δP, and δH, in which δD represents the dispersion solubility parameter, δP represents the polar solubility parameter, and δH represents the hydrogen bonding solubility parameter, respectively.
# The three partial parameters define a three-dimensional coordinate for substances in a virtual solubility space (Hanse space). In principle, the closer the two coordinates of HSP are, the more likely the substances will dissolve in each other, which is consistent with the notion of “like dissolves like” rule. To better describe the degree of closeness, another solubility parameter “distance” (Ra) is introduced as follows:1 Ra2=4(δD2−δD1)^2+(δP2−δP1)^2+(δH2−δH1)^2 […]
# Meanwhile, each substance has an intrinsic distance parameter R0, together with HSP as a center point that would define a solubility sphere in Hansen space. If the HSP coordinate of one substance is located inside the sphere of another substance, it indicates a high affinity between them. For solute and solvent cases, a dissolution process may happen. Otherwise, a low affinity is inferred if one substance is excluded from the sphere of another.
# The total HSP data set of C1-C12 was experimentally tested and optimized from a combination of solvents library and listed in Table 1 (Supplementary Methods 1.3, Supplementary Fig. 1). […] For the unique H2O, there are three sets of HSP for different conditions. The first is the HSP of single-molecule (pure) water (15.5, 16.0, 42.3), in which the δH is more salient than δD and δP, it well explains the strong hydrogen bonding interactions between water molecules. However, its use in the prediction of solubility in water is not deemed appropriate in most cases. The second and third sets of HSP for water are those derived from solubility data and should be chosen case by case. The second set of HSP (15.1, 20.4, 16.5) was derived from experimental data set exceeding 1% soluble compounds in water, which may be appropriate for the diluted solute case (denoted as Water1). The third set of HSP (18.1, 17.1, 16.9) was derived from experimental data set of complete miscible compounds with water, which may be appropriate for the dense solute case (denoted as Water2).
# 1.3 Determination of solubility-related parameters […]
# (2) Determination of Hansen solubility parameters (HSP)3
# A collection of solvents was used to estimate the HSPs values of C2–C12, which includes dichloromethane, chloroform, toluene, diethyl ether, hexane, dioxane, pyridine, tetrahydrofuran, dimethyl sulfoxide, N, N-dimethyl formamide, acetone, acetonitrile, methanol and ethanol. If the specific solvent (0.5 mL) can dissolve at least 1.0 mg of certain solute would be rated as good solvent, otherwise as bad solvent. For C1, it’s expected that this molecule can only dissolve in nonpolar solvents (recrystallized from CCl4 according to literature report). We […]
# methanol, ethanol and water would be bad solvents. These rated solvent s datasets for C1–C12 were imported to HSPiP software that developed by Dr. Hansen, Abbott and Hiroshi to optimize and obtain three partial HSPs values.
# Water-contact angle test = type: physicochemical
# From the text: (§1) With the 12 combinatorial molecules in hand, we initially examined their hydrophilicity and aqueous solubility. The water-contact angle test gave a clear hydrophilic assessment for these molecules (Table 1 and Supplementary Table 1). The conventional shake-flask method was employed to obtain the thermodynamic aqueous solubility data[29]. […]. In pursuit of both improving the hydrophilicity and aqueous solubility, we planned to introduce dual N/O heteroatoms to C1 skeleton as listed in group 2. […]. The turning point comes to C9 that doping two N atoms on the phenanthrene subcomponent besides the oxazole part. A water contact angle of 0° indicates the high hydrophilicity of C9. […].
# Supplementary Table 1. Collected water contact angles for C2 – C12 […]
# [2] = Shake-flask thermodynamic aqueous solubility (1H NMR quantification); type: physicochemical; settings: for solubility at 24 h: water, thermodynamic from solid, D2O, room temperature
# From the text: as §1
# 1.3 Determination of solubility-related parameters
# (1) Measurement of aqueous solubility
# We applied the classic shake-flask method to determine the solubility data of C2–C12 in water. Typically, an excess amount of C2 was added to 1.0 mL of D2O, and the mixture was stirred at room temperature for 24 h. After that, the phase separation of saturated solution was finished through centrifugation. 1H NMR technology was applied to quantitatively analysis the concentration of solute using tetrahydrofuran as internal standard. Actually, we didn’t synthesize C1 to obtain its solubility data from experimental method because it’s obvious that this compound would be insoluble in water from reasonable judgement. Alternatively, due to its high hydrophobicity and measured water solubility data from C2–C8 counterpart, we can estimate this value must be at least lower than 0.1 mg / mL as well. […]
# [3] = Apparent association constants by 1H NMR shift analysis (dimeric model); type: physicochemical; settings: for Ka (CHCl3), apparent association constant: CHCl3, dimeric model; for Ka (MeOH-H2O), apparent association constant: MeOH-H2O (legend: H2O), dimeric model
# From the text: As is known, high concentration as a driving force to promote the molecular aggregation in solution is ubiquitous and well recognized[37],[38]. To compare the high concentration induced aggregation phenomenon with our case, we measured their apparent association constants (Ka) by ^1H NMR shift analysis after simplifying the aggregates to a dimeric model[39] (Supplementary Figs. 17–28). As listed in Fig. 3b, C10-C12 in chloroform display relatively weak association ability induced by high concentration factor. […] Meanwhile, the ^13C NMR spectra gave more informative details about C10-C12 in different existing states (Fig. 3c, Supplementary Figs. 13 and 14). […] In comparison, these signals became broadened and moved to upfield with a maximal 3.19 ppm shift in D2O conditions, which was almost in consistent with the solid-state ^13C magic-angle spinning (MAS) NMR spectrum despite its much broader signature. Moreover, the luminescent emissions of C10-C12 in various solvent ratios and solid-state were also screened (Fig. 3d, Supplementary Figs. 33 and 34). […] Unexpectedly, the maximal emissions in water are close to the solid state of C10-C12 (e.g., 472 nm in water versus 486 nm in solid for C10), indicative of a homologous excited-state energy transfer pathway.
# [4] = Kinetic radii from DOSY NMR (Stokes-Einstein equation); type: physicochemical
# [5] = AFM measurement of nanoparticles in wet conditions; type: physicochemical; settings: aqueous solution 1.5 mM on mica
# Protocol: To further confirm the aggregation-induced nanoparticles formed in water, we carried out atomic force microscope (AFM) measurement of C10-C12 in wet conditions[35] (Fig. 2c and Supplementary Figs. 29–31). Typically, a drop of aqueous solution of C11 (1.5 mM) was cast on a freshly cleaved mica surface and subjected to test. […] 2D and 3D height profiles gave a particle size around 8 nm.
# [6] = design: method as in hazardous substances data bank; settings: 25 °C; ref hazardous substances data bank; cited from earlier work
Water2 Ra [1] [MPa^0.5],Water1 Ra [1] [MPa^0.5],δD (dispersion solubility parameter) [1],δH (hydrogen bonding solubility parameter) [1],δP (polar solubility parameter) [1],R0 (intrinsic distance parameter) [1] [MPa^0.5],Water contact angle (Water-contact angle test; C2-C12) [°],solubility at 24 h [2] [µg/mL],Water1 RED (Ra/R0) [1],"Ka (CHCl3), apparent association constant [3]","Ka (MeOH-H2O), apparent association constant [3]","kinetic radius, DOSY ([4]; D2O) [nm]","kinetic radius, DOSY ([4]; MeOD-d4) [nm]",average diameter of nanoparticles (AFM statistical analysis) [5] [nm],SMILES,"Water contact angle (Water-contact angle test; C1 not synthesized, deduced and estimated by comparison with C2) [°]",Water2 RED (Ra/R0) [1],Aqueous solubility [2],Aqueous solubility [6]
10.5,14.1,17.9 (MPa)^0.5,10.1 (MPa)^0.5,9.1 (MPa)^0.5,5.4,0,< 100,,,,,,,c1ccc(-c2nc3c4cccnc4c4ncccc4c3[nH]2)cc1 [C3],,1.9,,
3.8,5.5,16.4 (MPa)^0.5,16.1 (MPa)^0.5,15.6 (MPa)^0.5,7.5,0,< 100,,,,,,,c1cnc2c(c1)c1nc(-c3ccncc3)[nH]c1c1cccnc12 [C4],,,,
3.7,5.3,16.4 (MPa)^0.5,16.5 (MPa)^0.5,15.8 (MPa)^0.5,7,0,< 100,,,,,,,c1cncc(-c2nc3c4cccnc4c4ncccc4c3[nH]2)c1 [C5],,,,
5.9,7.9,16.1 (MPa)^0.5,16.8 (MPa)^0.5,12.8 (MPa)^0.5,7.9,0,< 100,,,,,,,c1ccc(-c2nc3c4cccnc4c4ncccc4c3[nH]2)nc1 [C6],,,,
5.1,10.8,18.6 (MPa)^0.5,15.5 (MPa)^0.5,12.3 (MPa)^0.5,10,0,900,1.1,,,,,,c1ccc(-c2nc3c4cccnc4c4ncccc4c3o2)cc1 [C9],,,slightly soluble,
10.8,15,17.7 (MPa)^0.5,15.8 (MPa)^0.5,6.3 (MPa)^0.5,10.7,0,40000,1.4,8(2) M^-1,772(47) M^-1,,,,c1cnc2c(c1)c1nc(-c3ccncc3)oc1c1cccnc12 [C10],,,,
10.2,14.9,18.3 (MPa)^0.5,15.9 (MPa)^0.5,7.0 (MPa)^0.5,11,0,13000,1.4,6(1) M^-1,850(50) M^-1,3.98,0.65,8.32,c1cncc(-c2nc3c4cccnc4c4ncccc4c3o2)c1 [C11],,,,
10.9,16.4,19.4 (MPa)^0.5,17.2 (MPa)^0.5,6.5 (MPa)^0.5,12.3,0,150000,1.3,13(1) M^-1,918(77) M^-1,,,,c1ccc(-c2nc3c4cccnc4c4ncccc4c3o2)nc1 [C12],,,,
,,,,,,,,,,,,,,c1cnccn1 [pyrazine],,,,freely soluble in water

SMILES,Water2 Ra [1] [MPa^0.5],Water1 Ra [1] [MPa^0.5],δD (dispersion solubility parameter) [1],δH (hydrogen bonding solubility parameter) [1],δP (polar solubility parameter) [1],R0 (intrinsic distance parameter) [1] [MPa^0.5],Water contact angle (Water-contact angle test; C2-C12) [°],solubility at 24 h [2] [µg/mL],Water1 RED (Ra/R0) [1],"Ka (CHCl3), apparent association constant [3]","Ka (MeOH-H2O), apparent association constant [3]","kinetic radius, DOSY ([4]; D2O) [nm]","kinetic radius, DOSY ([4]; MeOD-d4) [nm]",average diameter of nanoparticles (AFM statistical analysis) [5] [nm],"Water contact angle (Water-contact angle test; C1 not synthesized, deduced and estimated by comparison with C2) [°]",Water2 RED (Ra/R0) [1],Aqueous solubility [2],Aqueous solubility [6]
"C1=C(c2ccccc2)Cc2c1c1ccccc1c1ccccc21 [C1, 2-phenyl-1H-cyclophen[l]phenanthrene, reference compound]",20.8,23.8,,,,,,,,,,,,,>140,,,
c1ccc(-c2nc3c4ccccc4c4ccccc4c3[nH]2)cc1 [C2],9.9,13.3,18.5 (MPa)^0.5,8.1 (MPa)^0.5,12.6 (MPa)^0.5,4.5,140.6,< 100,,,,,,,,,,
c1ccc(-c2nc3c4ccccc4c4ccccc4c3o2)cc1 [C7],13.9,18.2,19.5 (MPa)^0.5,7.5 (MPa)^0.5,7.2 (MPa)^0.5,6.6,135.2,< 100,2.8,,,,,,,,barely soluble in water,
c1ccc(-c2nc3c4ccccc4c4ccccc4c3o2)nc1 [C8],13.8,18.1,19.4 (MPa)^0.5,7.8 (MPa)^0.5,7.0 (MPa)^0.5,8.8,128.6,< 100,2.1,,,,,,,1.6,barely soluble in water,
